Here are results for 29 compounds from patent publication US20050004134A1, “Thiazole derivative and pharmaceutical use thereof” (priority 2001, published 2005).

In one series the target is T1, human A1 receptor (Homo sapiens, UniProt P30542).
T1 sequence (P30542 1-326): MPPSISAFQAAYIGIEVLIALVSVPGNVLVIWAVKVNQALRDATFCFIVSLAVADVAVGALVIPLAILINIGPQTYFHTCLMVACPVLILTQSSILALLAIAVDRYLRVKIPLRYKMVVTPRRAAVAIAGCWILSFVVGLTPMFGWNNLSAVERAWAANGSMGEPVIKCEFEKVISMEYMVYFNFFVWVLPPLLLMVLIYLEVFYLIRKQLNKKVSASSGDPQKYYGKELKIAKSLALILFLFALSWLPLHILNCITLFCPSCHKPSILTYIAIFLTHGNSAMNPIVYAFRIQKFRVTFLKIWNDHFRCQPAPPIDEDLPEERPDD
Kind of series: Adenosine antagonistic activity, radioligand binding with [3H]DPCPX. The note with it: 4.5 nM. The procedure:
(§1) Test 1: Adenosine Antagonistic Activity
(§2) The adenosine antagonistic activity [Ki(nM)] of the test compound was examined by radioligand binding techniques using 8-cyclopentyl-1,3-dipropylxanthine, [dipropyl-2,3^−3H(N)] ([3H]DPCPX, 4.5 nM) for human A1 receptor and [3H]CGS 21680 (20 nM) for human A2a receptor.

A further series deals with human A2a receptor (Homo sapiens, UniProt P29274). Nature of the series: Adenosine antagonistic activity, radioligand binding with [3H]CGS 21680. The note with it: [3H]CGS 21680, 20 nM. The procedure: as §1, §2
The next series has as its system ddY mice. Nature of the series: Anticatalepsy activity in mouse (haloperidol-induced catalepsy). It counts as in vivo. The note with it: 3.2 mg/kg orally, ddY mice (n=7); haloperidol 0.32 mg/kg i.p. 30 min after compound; measured 30 min after injection, bar test up to 30 sec. As for the experimental part: Test 2: Anticatalepsy Activity in Mouse
The test compound (3.2 mg/kg) was administered orally with ddY mice(n=7). Then, haloperidol (0.32 mg/kg) was injected intraperitoneally 30 min. after the administration of the compound. Thirty minutes after the injection, the cataleptic responses of mice were measured. The forelimbs of each mouse were placed on a 3 cm high, 3 mm wide horizontal bar, and the duration of cataleptic posture was measured for up to 30 sec.

Chain of human A2a receptor (P29274 whole entry): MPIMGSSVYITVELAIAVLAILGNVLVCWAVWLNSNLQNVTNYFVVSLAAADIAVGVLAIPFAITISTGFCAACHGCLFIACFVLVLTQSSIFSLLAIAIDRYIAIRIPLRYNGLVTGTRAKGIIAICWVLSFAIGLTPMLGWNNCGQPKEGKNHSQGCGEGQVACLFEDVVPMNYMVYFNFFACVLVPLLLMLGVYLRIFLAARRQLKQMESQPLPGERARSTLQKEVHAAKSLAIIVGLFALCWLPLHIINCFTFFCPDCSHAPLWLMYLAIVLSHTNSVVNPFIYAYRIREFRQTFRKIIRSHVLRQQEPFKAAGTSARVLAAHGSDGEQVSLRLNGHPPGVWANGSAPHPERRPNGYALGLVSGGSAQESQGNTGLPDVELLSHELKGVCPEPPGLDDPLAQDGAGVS

With `CNc1nc(-c2ccccc2)c(-c2ccc(=O)n(C(C)C)n2)s1` [Example 15, 2-Isopropyl-6-[2-(methylamino)-4-phenyl-1,3-thiazol-5-yl]-3(2H)-pyridazinone], the melting point was in the range of 234 to 236 °C. In addition, the affinity at human A1 receptor, expressed as Ki, was 0.12 nM. The Ki on human A2a receptor came to 1.63 nM. The “Manifestation rate of catalepsy (number of mouse)” value (shortened to “Manifestation rate of catalepsy”) with ddY mice is on record as 0/7.

`CCNC(=O)c1nc(-c2ccccc2)c(-c2ccc(=O)n(C(C)C)n2)s1` [Example 214, N-ethyl-5-(1-isopropyl-6-oxo-1,6-dihydro-3-pyridazinyl)-4-phenyl-1,3-thiazole-2-carboxamide] registered a melting point of 172 to 174 °C. Moreover, affinity at human A1 receptor was put at a Ki of 1.14 nM. Moreover, the affinity on human A2a receptor corresponds to a Ki of 1.52 nM. The “Manifestation rate of catalepsy” value with ddY mice is 0/7.

`CC(C)n1nc(-c2sc(NC(=O)c3ccccc3)nc2-c2ccc(F)cc2)ccc1=O` [Example 78, N-[4-(4-Fluorophenyl)-5-(1-isopropyl-6-oxo-1,6-dihydro-3-pyridazinyl)-1,3-thiazol-2-yl]-benzamide] gave a melting point of 228 to 230 °C. Moreover, the Ki at human A1 receptor came to 0.45 nM. On human A2a receptor, this compound gave a Ki of 1.23 nM. Moreover, the “Manifestation rate of catalepsy” value in the series on ddY mice is on record as 0/7.

`CCCCCC(=O)Nc1nc(-c2ccccc2)c(-c2ccc(=O)n(C(C)C)n2)s1` [Example 3, N-[5-(1-Isopropyl-6-oxo-1,6-dihydro-3-pyridazinyl)-4-phenyl-1,3-thiazol-2-yl]hexanamide] had a melting point of 129 to 132 °C. The same compound showed an inhibitory constant (Ki) at human A1 receptor of 0.27 nM. The same compound yielded a Ki on human A2a receptor of 1.46 nM. Further, in the series on ddY mice, the “Manifestation rate of catalepsy” value was 0/7.

In the case of `CC(C)CC(=O)Nc1nc(-c2ccccc2)c(-c2ccc(=O)n(C(C)C)n2)s1` [Example 58, N-[5-(1-Isopropyl-6-oxo-1,6-dihydro-3-pyridazinyl)-4-phenyl-1,3-thiazol-2-yl]-3-methylbutanamide], the melting point was 198 to 199 °C.

Consider `CC(C)n1nc(-c2sc(N(C)C)nc2-c2ccccc2)ccc1=O` [Example 23, 6-[2-(dimethylamino)-4-phenyl-1,3-thiazol-5-yl]-2-isopropyl-3(2H)-pyridazinone], for which the melting point lay within 158 to 160 °C.

The compound `CC(C)n1nc(-c2sc(NC(=O)c3ccccn3)nc2-c2ccccc2)ccc1=O` [Example 26, N-[5-(1-Isopropyl-6-oxo-1,6-dihydro-3-pyridazinyl)-4-phenyl-1,3-thiazol-2-yl]-2-pyridinecarboxamide] returned a melting point of 245 to 246 °C.

Compound `COCCCNCC(=O)Nc1nc(-c2ccccc2)c(-c2ccc(=O)n(C(C)C)n2)s1.Cl` gave a melting point greater than 250 °C.

The compound `CC(C)n1nc(-c2sc(C(=O)N3CCN(c4ccccc4)CC3)nc2-c2ccccc2)ccc1=O` [Example 231, 2-isopropyl-6-(4-phenyl-2-[(4-phenyl-1-piperazinyl)carbonyl]-1,3-thiazol-5-yl}-3(2H)-pyridazinone] yielded a melting point of 163.5 to 165 °C.

In the case of `Cc1cccc(C(=O)Nc2nc(-c3ccccc3)c(-c3ccc(=O)n(C(C)C)n3)s2)c1` [Example 42, N-[5-(1-Isopropyl-6-oxo-1,6-dihydro-3-pyridazinyl)-4-phenyl-1,3-thiazol-2-yl]-3-methylbenzamide], the melting point was in the range of 198 to 199 °C.

`COCCNCc1ccc(C(=O)Nc2nc(-c3ccccc3)c(-c3ccc(=O)n(C(C)C)n3)s2)cc1` [Example 96, N-[5-(1-isopropyl-6-oxo-1,6-dihydro-3-pyridazinyl)-4-phenyl-1,3-thiazol-2-yl]-4-([(2-methoxyethyl)amino]methyl}benzamide] had a melting point of 192 to 194 °C.

Compound `CCCNC(=O)c1nc(-c2ccccc2)c(-c2ccc(=O)[nH]n2)s1` [Example 169, 5-(6-oxo-1,6-dihydro-3-pyridazinyl)-4-phenyl-N-propyl-1,3-thiazole-2-carboxamide] returned a melting point of 232 to 233 °C.

Take `O=C(NCc1ccccn1)c1nc(-c2ccccc2)c(-c2ccc(=O)n(Cc3ccccc3)n2)s1` [Example 205, 5-(1-Benzyl-6-oxo-1,6-dihydro-3-pyridazinyl)-4-phenyl-N-(2-pyridinylmethyl)-1,3-thiazole-2-carboxamide]: the melting point was in the range of 172.5 to 173.5 °C.

`CC(C)n1nc(-c2sc(NCc3ccccn3)nc2-c2ccccc2)ccc1=O` [Example 20, 2-Isopropyl-6-{4-phenyl-2-[(2-pyridinylmethyl)amino]-1,3-thiazol-5-yl}-3(2H)-pyridazinone] gave a melting point of 182 to 184 °C.

Consider `C=CCn1nc(-c2sc(C(=O)NCc3ccccn3)nc2-c2ccccc2)ccc1=O` [Example 204, 5-(1-Allyl-6-oxo-1,6-dihydro-3-pyridazinyl)-4-phenyl-N-(2-pyridinylmethyl)-1,3-thiazole-2-carboxamide], for which the melting point is 117 to 118 °C.

`CC(C)n1nc(-c2sc(NC(=O)C(C)(C)C)nc2-c2ccccc2)ccc1=O` [Example 5, N-[5-(1-Isopropyl-6-oxo-1,6-dihydro-3-pyridazinyl)-4-phenyl-1,3-thiazol-2-yl]-2,2-dimethylpropanamide] showed a melting point of 224 to 226 °C.

As to `COC(=O)Cn1nc(-c2sc(N)nc2-c2ccccc2)ccc1=O` [Example 89, Methyl [3-(2-amino-4-phenyl-1,3-thiazol-5-yl)-6-oxo-1 (6H)-pyridazinyl]acetate], the melting point fell in the range of 190 to 193 °C.

In turn, `CC(C)n1nc(-c2sc(NC(=O)CCNCc3ccccn3)nc2-c2ccccc2)ccc1=O` [Example 124, N-[5-(1-Isopropyl-6-oxo-1,6-dihydro-3-pyridazinyl)-4-phenyl-1,3-thiazol-2-yl]-3-[(2-pyridinylmethyl)amino]propanamide] displayed a melting point of 200 to 201 °C.

Consider `CC(C)n1nc(-c2sc(NC(=O)c3ccc(F)cc3)nc2-c2ccccc2)ccc1=O` [Example 48, 4-fluoro-N-[5-(1-isopropyl-6-oxo-1,6-dihydro-3-pyridazinyl)-4-phenyl-1,3-thiazol-2-yl]benzamide], for which the melting point fell in the range of 225 to 226 °C.

`CC(C)NC(=O)c1nc(-c2ccccc2)c(-c2ccc(=O)n(C(C)C)n2)s1` [Example 180, N-isopropyl-5-(1-isopropyl-6-oxo-1,6-dihydro-3-pyridazinyl)-4-phenyl-1,3-thiazole-2-carboxamide] came in with a melting point of 131 to 132.5 °C.

`CC(C)n1nc(-c2sc(NC(=O)c3ccc(CNCCCN(C)C)cc3)nc2-c2ccccc2)ccc1=O` [Example 143, 4-({[3-(Dimethylamino)propyl]amino}methyl)-N-[5-(1-isopropyl-6-oxo-1,6-dihydro-3-pyridazinyl)-4-phenyl-1,3-thiazol-2-yl]benzamide] registered a melting point of 108 to 110 °C.

`CC(C)n1nc(-c2sc(Nc3ccccn3)nc2-c2ccccc2)ccc1=O` [Example 67, 2-Isopropyl-6-[4-phenyl-2-(2-pyridinylamino)-1,3-thiazol-5-yl]-3(2H)-pyridazinone] yielded a melting point of 194 to 195 °C.

As to `Cn1nc(-c2sc(N)nc2-c2ccccc2)ccc1=O` [Example 85, 6-(2-amino-4-phenyl-1,3-thiazol-5-yl)-2-methyl-3(2H)-pyridazinone], the melting point lay within 238 to 241 °C.

`CC(C)n1nc(-c2sc(NC(=O)N(C)C)nc2-c2ccccc2)ccc1=O` [Example 50, N′-[5-(1-Isopropyl-6-oxo-1,6-dihydro-3-pyridazinyl)-4-phenyl-1,3-thiazol-2-yl]-N,N-dimethylurea] registered a melting point of 199 to 200 °C.

Compound `Cc1cccc(NC(=O)Nc2nc(-c3ccccc3)c(-c3ccc(=O)n(C(C)C)n3)s2)c1` [Example 10, N-[5-(1-Isopropyl-6-oxo-1,6-dihydro-3-pyridazinyl)-4-phenyl-1,3-thiazol-2-yl]-N′-(3-methylphenyl)urea] gave a melting point of 242 to 243 °C. At human A1 receptor, this compound gave an inhibition constant (Ki) of 0.38 nM. Besides, on human A2a receptor, the Ki is 3.08 nM.

For `CC(C)n1nc(-c2sc(NC(=O)c3ccccc3C(F)(F)F)nc2-c2ccccc2)ccc1=O` [Example 40, N-[5-(1-Isopropyl-6-oxo-1,6-dihydro-3-pyridazinyl)-4-phenyl-1,3-thiazol-2-yl]-2-(trifluoromethyl)benzamide], the melting point was 219 to 220 °C.

`CCOCCNCC(=O)Nc1nc(-c2ccccc2)c(-c2ccc(=O)n(C(C)C)n2)s1.Cl` returned a melting point of 252 to 253 °C.

In turn, `Cn1nc(-c2sc(C(=O)NCc3ccccn3)nc2-c2ccccc2)ccc1=O` [Example 201, 5-(1-methyl-6-oxo-1,6-dihydro-3-pyridazinyl)-4-phenyl-N-(2-pyridinylmethyl)-1,3-thiazole-2-carboxamide] came in with a melting point of 189 to 190.5 °C.

Consider `COCCn1nc(-c2sc(C(N)=O)nc2-c2ccccc2)ccc1=O` [Example 168, 5-[1-(2-Methoxyethyl)-6-oxo-1,6-dihydro-3-pyridazinyl]-4-phenyl-1,3-thiazole-2-carboxamide], for which the melting point is 198 to 199.5 °C.

A word on the Ki: it is a dissociation constant, usually derived from enzyme kinetics or from competition with a known ligand. The melting point is the temperature of the solid-liquid transition.
